Source: ChEMBL document CHEMBL1667780, “Identification of a novel small molecule targeting UQCRB of mitochondrial complex III and its anti-angiogenic activity” (Bioorg Med Chem Lett, 2011)
The source made the active and inactive calls. The rule behind the calls is not given here.

Assays:
[1] = target: T1, Cytochrome b-c1 complex subunit 7 (Homo sapiens) (UniProt P14927); test: Binding affinity to human UQCRB at 25 uM by surface plasmon resonance assay
T1 sequence (whole entry): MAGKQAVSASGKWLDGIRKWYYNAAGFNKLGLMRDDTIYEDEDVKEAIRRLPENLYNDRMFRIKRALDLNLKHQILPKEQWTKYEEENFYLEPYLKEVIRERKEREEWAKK

[2] = target: T1, Cytochrome b-c1 complex subunit 7 (Homo sapiens); test: Binding affinity to UQCRB in HUVEC at 30 uM after 24 hrs by ter-caumarin competitive binding assay; type: cell-based

## C/C1=C\C[C@]2(C)C(=O)C(O)=C([C@H](C)CO)[C@H]2C/C=C(\C)[C@@H](O)CC/C(C)=C/CC1
[1]
  Activity: Active
[2]
  Activity: Active
